# Assay results: US20220403001A1, “PDE5 DERIVED REGULATORY CONSTRUCTS AND METHODS OF USE IN IMMUNOTHERAPY” (Obsidian Therapeutics, Inc., priority 2018, published 2022)
# Legend:
# hPDE5 mutants [1] = test: Western blot of AcGFP/GFP protein levels in HCT 116 cells expressing hPDE5 mutants; type: cell-based, human; settings: 10 μM Vardenafil, 24 hours, HCT 116
# Description: Protein expression analysis of the combination mutants was performed in parallel via western blot. […] GAPDH levels were also analyzed to ensure even protein loading.
# hPDE5 mutants [2] = molecular target: hPDE5 mutants (Homo sapiens, UniProt O76074); test: GFP MFI by FACS in HCT116 cells transduced with hPDE5 constructs; type: cell-based; settings: HCT-116
# hPDE5 mutants [3] = test: as above; type: cell-based, human; settings: for MFI / Stabilization ratio / Vardenafil dose response (MFI of GFP): HCT116; for Sildenafil dose response (MFI) / Tadalafil dose response (MFI): HCT 116
# hPDE5 mutants [4] = test: Immunoblot (AcGFP antibody) of hPDE5-AcGFP constructs in HEK293 cells; type: cell-based, human; settings: compared with wildtype OT-001075
# Text: Puro and used as a control.
# Cell lysates obtained from hPDE5N construct expressing cells were immunoblotted using the AcGFP antibody (Clonetech, Mountain View, Calif.). Samples were also immunoblotted with the GAPDH antibody to ensure uniform protein loading.
# hPDE5 mutants [5] = test: GFP expression (MFI) by FACS in HEK293 cells expressing hPDE5 constructs
# Description: The mutant library was ligated in frame with an AcGFP reporter at C-terminus and cloned into pLVX-IRES—Puro vectors. […] DNA was extracted from the cell pool, cloned into vectors, and transformed into E. coli. Individual clones were sequenced and cloned in frame with a linker [sequence] […] HEK293 cells were transduced with individual clones and selected with puromycin.
# The GFP expression in cells expressing hPDE5 constructs was measured by FACS.
# The stability of hPDE5 mutants was measured using FACS and mean fluorescence intensity (MFI) of GFP was calculated.
# [6] = Sildenafil 0.0005 μM, 48 h, HEK293
# [7] = Sildenafil 3.33 μM, 48 h, HEK293
# [8] = Sildenafil 10 μM, 48 h, HEK293 (dose titration)
# [9] = Sildenafil 10 μM, 48 h, HEK293 (time course)
# [10] = Vardenafil 0.0005 μM, 48 h, HEK293
# [11] = Vardenafil 3.33 μM, 48 h, HEK293
# [12] = Vardenafil (10 μM), 48 h, Table 25, cell line not given in table
substance,measurement,setting,value
"OT-001222: hPDE5 (F736A, D764N) GFP construct",AcGFP protein levels (western blot),hPDE5 mutants [1],Vardenafil dependent stabilization of AcGFP protein levels
same,Sildenafil Stabilization ratio,"hPDE5 mutants [2]; 10 μM, 48 h",1.10
same,Vardenafil Stabilization ratio,"hPDE5 mutants [2]; 10 μM, 48 h",4.26
same,MFI Sildenafil,"hPDE5 mutants [2]; GFP, 10 μM Sildenafil 48 h",13862
same,MFI Vardenafil,"hPDE5 mutants [2]; GFP, 10 μM Vardenafil 48 h",53848
same,Vardenafil Stabilization ratio,"hPDE5 mutants [3]; 10 μM, 48 h, HCT-116",4.26
same,MFI DMSO,"hPDE5 mutants [3]; GFP, DMSO 48 h, HCT-116",12633
same,MFI,"hPDE5 mutants [3]; Sildenafil 0.04 μM, 24 h",8688
same,Stabilization ratio,"hPDE5 mutants [3]; Sildenafil 0.04 μM, 24 h",0.81
same,MFI,"hPDE5 mutants [3]; Sildenafil 0.5 μM, 4 hours",5322
same,Stabilization ratio,"hPDE5 mutants [3]; Sildenafil 0.5 μM, 4 hours",1.64
same,MFI,"hPDE5 mutants [3]; Sildenafil 0.5 μM, 8 hours",5083
same,Stabilization ratio,"hPDE5 mutants [3]; Sildenafil 0.5 μM, 8 hours",1.57
same,MFI,"hPDE5 mutants [3]; Sildenafil 0.5 μM, 12 hours",5122
same,Stabilization ratio,"hPDE5 mutants [3]; Sildenafil 0.5 μM, 12 hours",1.58
same,MFI,"hPDE5 mutants [3]; Sildenafil 0.5 μM, 16 hours",5600
same,Stabilization ratio,"hPDE5 mutants [3]; Sildenafil 0.5 μM, 16 hours",1.73
same,MFI,"hPDE5 mutants [3]; Sildenafil 0.5 μM, 20 hours",6003
same,Stabilization ratio,"hPDE5 mutants [3]; Sildenafil 0.5 μM, 20 hours",1.85
same,MFI,"hPDE5 mutants [3]; Sildenafil 0.5 μM, 24 hours",6144
same,Stabilization ratio,"hPDE5 mutants [3]; Sildenafil 0.5 μM, 24 hours",1.89
same,MFI,"hPDE5 mutants [3]; Sildenafil 0.5 μM, 48 hours",6682
same,Stabilization ratio,"hPDE5 mutants [3]; Sildenafil 0.5 μM, 48 hours",2.06
same,MFI,"hPDE5 mutants [3]; Sildenafil 0.5 μM, 72 hours",6906
same,Stabilization ratio,"hPDE5 mutants [3]; Sildenafil 0.5 μM, 72 hours",2.13
same,MFI,"hPDE5 mutants [3]; Sildenafil 3.33 μM, 24 h",10384
same,Stabilization ratio,"hPDE5 mutants [3]; Sildenafil 3.33 μM, 24 h",0.97
same,MFI,"hPDE5 mutants [3]; Sildenafil 5 μM, 4 hours",6314
same,Stabilization ratio,"hPDE5 mutants [3]; Sildenafil 5 μM, 4 hours",1.88
same,MFI,"hPDE5 mutants [3]; Sildenafil 5 μM, 8 hours",7021
same,Stabilization ratio,"hPDE5 mutants [3]; Sildenafil 5 μM, 8 hours",2.09
same,MFI,"hPDE5 mutants [3]; Sildenafil 5 μM, 12 hours",9199
same,Stabilization ratio,"hPDE5 mutants [3]; Sildenafil 5 μM, 12 hours",2.73
same,MFI,"hPDE5 mutants [3]; Sildenafil 5 μM, 16 hours",12280
same,Stabilization ratio,"hPDE5 mutants [3]; Sildenafil 5 μM, 16 hours",3.65
same,MFI,"hPDE5 mutants [3]; Sildenafil 5 μM, 20 hours",13280
same,Stabilization ratio,"hPDE5 mutants [3]; Sildenafil 5 μM, 20 hours",3.95
same,MFI,"hPDE5 mutants [3]; Sildenafil 5 μM, 24 hours",16705
same,Stabilization ratio,"hPDE5 mutants [3]; Sildenafil 5 μM, 24 hours",4.97
same,MFI,"hPDE5 mutants [3]; Sildenafil 5 μM, 48 hours",22061
same,Stabilization ratio,"hPDE5 mutants [3]; Sildenafil 5 μM, 48 hours",6.56
same,MFI,"hPDE5 mutants [3]; Sildenafil 5 μM, 72 hours",26995
same,Stabilization ratio,"hPDE5 mutants [3]; Sildenafil 5 μM, 72 hours",8.02
same,MFI,"hPDE5 mutants [3]; Sildenafil 10 μM, 24 h",13263
same,Stabilization ratio,"hPDE5 mutants [3]; Sildenafil 10 μM, 24 h",1.24
same,Sildenafil dose response (MFI),"hPDE5 mutants [3]; Sildenafil 11.11 μM, 48 h",5675
same,MFI,"hPDE5 mutants [3]; Sildenafil 30 μM, 24 h",26837
same,Stabilization ratio,"hPDE5 mutants [3]; Sildenafil 30 μM, 24 h",2.5
same,Sildenafil dose response (MFI),"hPDE5 mutants [3]; Sildenafil 33.33 μM, 48 h",9677
same,Sildenafil dose response (MFI),"hPDE5 mutants [3]; Sildenafil 100.00 μM, 48 h",37494
same,Destabilizing mutation co-efficient ratio,"hPDE5 mutants [3]; Sildenafil dose response experiment (Table 27), vs OT-001216",0.17
same,Vardenafil dose response (MFI of GFP),"hPDE5 mutants [3]; Table 33, 0.01 μM, 48 h",4444
same,Vardenafil dose response (MFI of GFP),"hPDE5 mutants [3]; Table 33, 0.04 μM, 48 h",4934
same,Vardenafil dose response (MFI of GFP),"hPDE5 mutants [3]; Table 33, 3.33 μM, 48 h",10516
same,Vardenafil dose response (MFI of GFP),"hPDE5 mutants [3]; Table 33, 10.00 μM, 48 h",24927
same,MFI,"hPDE5 mutants [3]; Tadalafil 11.11 μM, 24 h",13789
same,Stabilization ratio,"hPDE5 mutants [3]; Tadalafil 11.11 μM, 24 h",2.28
same,Tadalafil dose response (MFI),"hPDE5 mutants [3]; Tadalafil 11.11 μM, 48 h",8299
same,MFI,"hPDE5 mutants [3]; Tadalafil 33.33 μM, 24 h",20464
same,Stabilization ratio,"hPDE5 mutants [3]; Tadalafil 33.33 μM, 24 h",3.39
same,Tadalafil dose response (MFI),"hPDE5 mutants [3]; Tadalafil 33.33 μM, 48 h",15831
same,MFI,"hPDE5 mutants [3]; Tadalafil 100 μM, 24 h",23542
same,Stabilization ratio,"hPDE5 mutants [3]; Tadalafil 100 μM, 24 h",3.9
same,Tadalafil dose response (MFI),"hPDE5 mutants [3]; Tadalafil 100.00 μM, 48 h",31020
same,Destabilizing mutation coefficient,"hPDE5 mutants [3]; Tadalafil dose response experiment (Table 29), vs OT-001216",0.17
same,MFI,"hPDE5 mutants [3]; Vardenafil 0.04 μM, 24 h",6174
same,Stabilization ratio,"hPDE5 mutants [3]; Vardenafil 0.04 μM, 24 h",0.80
same,MFI,"hPDE5 mutants [3]; Vardenafil 3.33 μM, 24 h",29520
same,Stabilization ratio,"hPDE5 mutants [3]; Vardenafil 3.33 μM, 24 h",3.84
same,MFI,"hPDE5 mutants [3]; Vardenafil 10 μM, 24 h",29971
same,Stabilization ratio,"hPDE5 mutants [3]; Vardenafil 10 μM, 24 h",3.90
same,MFI,"hPDE5 mutants [3]; Vardenafil 30 μM, 24 h",46109
same,Stabilization ratio,"hPDE5 mutants [3]; Vardenafil 30 μM, 24 h",5.99
same,Destabilizing mutation coefficient,"hPDE5 mutants [3]; Vardenafil dose response experiment (Table 28), vs OT-001216",0.12
same,Destabilizing mutation coefficient,"hPDE5 mutants [3]; vs wildtype OT-001216, absence of ligand, HCT-116",0.19
OT-001076: hPDE5-F736A AcGFP construct,hPDE5-GFP levels with DMSO treatment (immunoblot),hPDE5 mutants [4],lower than in the wildtype hPDE5 construct
same,MFI,hPDE5 mutants [5]; [6],6848
same,Stabilization ratio,hPDE5 mutants [5]; [6],0.97
same,MFI,hPDE5 mutants [5]; [7],49220
same,Stabilization ratio,hPDE5 mutants [5]; [7],7.00
same,MFI,"hPDE5 mutants [5]; Sildenafil 10 μM, 2 h, HEK293",12088
same,Stabilization ratio,"hPDE5 mutants [5]; Sildenafil 10 μM, 2 h, HEK293",1.54
same,MFI,"hPDE5 mutants [5]; Sildenafil 10 μM, 4 h, HEK293",14046
same,Stabilization ratio,"hPDE5 mutants [5]; Sildenafil 10 μM, 4 h, HEK293",1.77
same,MFI,"hPDE5 mutants [5]; Sildenafil 10 μM, 6 h, HEK293",16710
same,Stabilization ratio,"hPDE5 mutants [5]; Sildenafil 10 μM, 6 h, HEK293",2.11
same,MFI,"hPDE5 mutants [5]; Sildenafil 10 μM, 16 h, HEK293",39029
same,Stabilization ratio,"hPDE5 mutants [5]; Sildenafil 10 μM, 16 h, HEK293",4.93
same,MFI,"hPDE5 mutants [5]; Sildenafil 10 μM, 24 h, HEK293",51534
same,Stabilization ratio,"hPDE5 mutants [5]; Sildenafil 10 μM, 24 h, HEK293",6.51
same,MFI,hPDE5 mutants [5]; [8],67084
same,Stabilization ratio,hPDE5 mutants [5]; [8],9.53
same,MFI,hPDE5 mutants [5]; [9],70811
same,Stabilization ratio,hPDE5 mutants [5]; [9],8.94
same,MFI,hPDE5 mutants [5]; [10],11770
same,Stabilization ratio,hPDE5 mutants [5]; [10],1.04
same,MFI,hPDE5 mutants [5]; [11],172990
same,Stabilization ratio,hPDE5 mutants [5]; [11],15.33
same,MFI,"hPDE5 mutants [5]; Vardenafil 10 μM, 48 h, HEK293",188068
same,Stabilization ratio,"hPDE5 mutants [5]; Vardenafil 10 μM, 48 h, HEK293",16.66
same,Stabilization ratio,"hPDE5 mutants [5]; Vardenafil (1 μM), 48 h, Table 25, cell line not given in table",11.52
same,MFI,"hPDE5 mutants [5]; Vardenafil (1 μM), 48 h, Table 25, cell line not given in table (HEK293, HCT-116, SKOV-3)",110603
same,MFI,hPDE5 mutants [5]; [12],143351
same,Stabilization ratio,hPDE5 mutants [5]; [12],14.93
